Test results: article PMC6470738, “Characterization of the High-Affinity Drug Ligand Binding Site of Mouse Recombinant TSPO” (International Journal of Molecular Sciences, 2019)
“And” between values parts separate entries of the source, which are not always exact repeats. Equal values may be shown once. “Also recorded” adds a separate entry of the source. Read-outs that look alike come from different tables or passages of the source.

Key:
[1] = test system: TSPO A147T (polymorphism rs6971); settings: human polymorphism rs6971; cited from earlier work
[2] = molecular target: TSPO ∆158-159; design: method as in Farges et al. (1994); settings: yeast mitochondria, ref Farges et al. (1994), read-out: PK 11195 Kd; cited from earlier work
[3] = test system: mammalian TSPO ∆108-119; design: method as in Li et al. (1998); settings: bacterial protoplast, control = wild type, ref Li et al. (1998); cited from earlier work
[4] = test system: TSPO W42 mutation; design: method as in PMID 7808437; settings: cited from earlier work
[5] = test system: TSPO R32G; design: method as in PMID 7808437; settings: cited from earlier work
[6] = test system: mammalian TSPO ∆5-20; design: method as in Li et al. (1998); settings: bacterial protoplast, control = wild type, ref Li et al. (1998); cited from earlier work
[7] = molecular target: TSPO ∆2-20; design: method as in Farges et al. (1994); settings: yeast mitochondria, ref Farges et al. (1994), read-out: PK 11195 Kd; cited from earlier work
[8] = test system: mammalian TSPO ∆153-169; design: method as in Li et al. (1998); settings: bacterial protoplast, control = wild type, ref Li et al. (1998); cited from earlier work
[9] = molecular target: TSPO ∆2-20,158-169; design: method as in Farges et al. (1994); settings: yeast mitochondria, ref Farges et al. (1994), read-out: PK 11195 Kd; cited from earlier work
[10] = molecular target: TSPO ∆156-169; design: method as in Farges et al. (1994); settings: yeast mitochondria, ref Farges et al. (1994), read-out: PK 11195 Kd; cited from earlier work
[11] = molecular target: TSPO Wild-type; design: method as in Farges et al. (1994); settings: yeast mitochondria, ref Farges et al. (1994), read-out: PK 11195 Kd; cited from earlier work
[12] = molecular target: TSPO ∆157-169; design: method as in Farges et al. (1994); settings: yeast mitochondria, ref Farges et al. (1994), read-out: PK 11195 Kd; cited from earlier work
[13] = test system: TSPO W47 mutation; design: method as in PMID 7808437; settings: cited from earlier work
[14] = molecular target: T1, rec-mTSPO (Mus musculus, UniProt P50637); settings: cited from earlier work
T1 construct: His tag; made in house; host or cells: E. coli BL21 DE3

[15] = test system: human TSPO ∆15-35; settings: cited from earlier work
[16] = molecular target: T1, rec-mTSPO; experiment: Circular dichroism of rec-mTSPO in DPC with PK 11195; settings: increasing amounts of PK 11195, high ligand over protein molar ratios
Experimental: Far UV circular dichroism spectra were recorded on a Jobin-Yvon CD6 spectropolarimeter operated at room temperature according to published protocols [19, 25, 45]. Briefly, a detergent solubilized mTSPO sample (5 µM) in a 10 mM sodium phosphate buffer solution was placed in a 0.2 mm path length quartz cuvette (Hellma, Paris, France). The CD spectra were recorded in the 185 to 270 nm wavelength range with a 0.2 nm step resolution, 1 s signal averaging time and 1 nm bandwidth. The spectra were averaged over five scans, corrected for background and smoothed over 25 points. A consensus secondary structure content was estimated by spectral deconvolution using CONTINLL, CDSSTR and Selcon software and datasets of reference proteins SMP50 (37 soluble proteins and 13 membrane proteins) and SP37 (37 soluble proteins) [46], as well as CDFriend.

[17] = molecular target: T2, rec-mTSPO Y34S (Mus musculus, UniProt P50637, Y34S); experiment: [3H]-PK 11195 saturation binding to rec-mTSPO reconstituted in proteoliposomes
T2 construct: His tag; made in house; host or cells: E. coli
Experimental: (§1) Mutations were performed using the QuikChange Site-Directed Mutagenesis kit (Stratagene, France) according to published protocols. In brief, miniprep pET-PBR plasmid double-strand DNA was used as a template. Synthetic oligonucleotide primer pairs containing a point mutation or deletion, each complementary to the opposing strand of the vector, were extended during temperature cycling by pfu DNA polymerase. The nicked vector DNAs containing the desired mutations were then transfected into E. coli.
(§2) SDS-solubilized mTSPO was reincorporated in proteoliposomes by mixing with SDS solubilized lipids (dimyristoyl phosphatidyl choline/dimyristoyl phosphatidyl ethanolamine, 9:1) at a lipid to protein ratio of 5 (w/w). The detergent was removed using Bio-Beads SM2 according to published protocols. Reconstitution was followed by combining the fluorescence and optical changes as previously described.
(§3) Proteoliposomes containing recombinant mTSPO were incubated with various concentrations of [^3H]-PK 11195 (SA, 83.5 Ci/mmol, Perkin Elmer SAS, Courtaboeuf, France) in phosphate buffer saline (PBS). The bound ligand was quantified by liquid scintillation spectrometry after filtration on Whatman Filters GF/C (Sigma-Aldrich, Saint Quentin Fallavier, France) according to published protocols. The Kd and Bmax values were determined by fitting the saturation curves with the following equation Ligand bound = (Bmax × Ligand)/(Kd + Ligand).

[18] = molecular target: T3, rec-mTSPO F100A (Mus musculus, UniProt P50637, F100A); experiment: as above
T3 construct: His tag; made in house; host or cells: E. coli
Experimental: as §1, §2, §3

[19] = molecular target: T4, rec-mTSPO Y34F/F100A (Mus musculus, UniProt P50637, F100A/Y34F); experiment: as above
T4 construct: His tag; made in house; host or cells: E. coli
Experimental: as §1, §2, §3

[20] = molecular target: T5, rec-mTSPO Y34F (Mus musculus, UniProt P50637, Y34F); experiment: as above
T5 construct: His tag; made in house; host or cells: E. coli
Experimental: as §1, §2, §3

[21] = molecular target: T6, rec-mTSPO Y34F/F99A (Mus musculus, UniProt P50637, F99A/Y34F); experiment: as above
T6 construct: His tag; made in house; host or cells: E. coli
Experimental: as §1, §2, §3

[22] = molecular target: T7, rec-mTSPO ΔC-ter (153–169) (Mus musculus, UniProt P50637); experiment: as above
T7 construct: His tag; made in house; host or cells: E. coli
Experimental: as §1, §2, §3

[23] = molecular target: T8, rec-mTSPO Δ41–51 (Mus musculus, UniProt P50637, DEL41-51); experiment: as above; settings: Δ41–50 as printed in Table 1
T8 construct: His tag; made in house; host or cells: E. coli
Experimental: as §1, §2, §3

[24] = test system: TSPO K39G; design: method as in PMID 7808437; settings: cited from earlier work
[25] = test system: TSPO V26T; design: method as in PMID 7808437; settings: cited from earlier work
[26] = test system: TSPO R103A; design: method as in PMID 7808437; settings: cited from earlier work
[27] = test system: TSPO2; design: method as in PMID 19729679; settings: paralogous TSPO2; cited from earlier work
[28] = test system: mammalian TSPO ∆141-152; design: method as in Li et al. (1998); settings: bacterial protoplast, control = wild type, ref Li et al. (1998); cited from earlier work
[29] = test system: mammalian TSPO ∆41-51; design: method as in Li et al. (1998); settings: bacterial protoplast, control = wild type, ref Li et al. (1998); cited from earlier work
[30] = molecular target: T9, rec-mTSPO WT (Mus musculus, UniProt P50637); experiment: [3H]-PK 11195 saturation binding to rec-mTSPO reconstituted in proteoliposomes
T9 construct: His tag; made in house; host or cells: E. coli BL21 DE3
Experimental: as §2, §3

[31] = molecular target: T1, rec-mTSPO; experiment: Limited trypsin digestion of rec-mTSPO solubilized in DPC; settings: DPC 0.1%, 30 °C, TSPO:trypsin 30:1; 100 µM PK 11195 and increasing concentrations
Experimental: Proteolysis was performed by mixing rec-mTSPO (0.2 mg/mL) solubilized in DPC (0.1%) and a phosphate buffer (10 mM at pH 7.0) with protease at a TSPO:Trypsin ratio of 30:1 (w/w).

[32] = test system: mammalian TSPO ∆120-133; design: method as in Li et al. (1998); settings: bacterial protoplast, control = wild type, ref Li et al. (1998); cited from earlier work
[33] = test system: WT and mutants of TSPO reconstituted in liposomes; experiment: [3H]-PK 11195 saturation binding to rec-mTSPO reconstituted in proteoliposomes, all constructs; design: species or system mouse; settings: all stoichiometries obtained
Experimental: as §2, §3

In the case of COc1ccccc1CN(C(C)=O)c1cnccc1Oc1ccccc1 [PBR28], the “decrease of the affinity due to A147T polymorphism” value [1] is listed as “one or two orders of magnitude”.

In the case of CCC(C)N(C)C(=O)c1cc2ccccc2c(-c2ccccc2Cl)n1 (centres unmarked) [PK 11195, N-butan-2-yl-1-(2-chlorophenyl)-N-methylisoquinoline-3-carboxamide], the Kd [2] is listed as 10 ± 6 nM, the “PK 11195 binding % of control” value [3] is listed as ~ 70 % of control and the “effect of mutation on PK 11195 binding” value [4] is listed as “no effect”. The “effect of mutation on PK 11195 binding” value [5] was “no effect”, the “PK 11195 binding % of control” value [6] was ~ 70 % of control and the Kd [7] was 25 ± 8 nM. The “PK 11195 binding % of control” value [8] was ~ 75 % of control and 75 % of control, the Kd [9] was > 200 nM and the Kd [10] was 10 ± 4 nM. The Kd [11] was 6 ± 3 nM, the Kd [12] was 9 ± 3 nM and the “effect of mutation on PK 11195 binding” value [13] was “no effect”. The “PK 11195 binding in detergent” value ([14]; SDS-solubilized rec-mTSPO) was “no PK 11195 binding”, the “affinity with detergent-solubilized rec-mTSPO” value ([14]; detergent-solubilized, additional interaction between PK 11195 and detergent) was “micro-millimolar range” and the “PK 11195 binding in detergent” value ([14]; rec-mTSPO in the presence of DPC) was “observed”. For the same compound, the “effect of deletion on PK 11195 binding” value ([15]; Δ15–35 of human TSPO overexpressed in yeast) was “complete loss of PK 11195 binding; also recorded: loses its binding capacity”, the Kd ([15]; ∆15-35, yeast mitochondria, ref Farges et al. (1994), read-out: PK 11195 Kd) was > 200 nM and the “effect on CD spectrum of rec-mTSPO” value [16] was “increasing changes in the CD spectrum”. The Bmax [17] was 25 ± 5 nmol/mg, the Kd [17] was 40 ± 7 nM and the Bmax [18] was 25 ± 7 nmol/mg. The Kd [18] was 20 ± 5 nM, the “decrease in affinity for PK 11195 compared with WT” value ([19]; Y34F/F100A vs WT) was 20 fold and the Bmax ([19]; Y34F/F100A, proteoliposomes) was 25 ± 10 nmol/mg. It also gave a Kd ([19]; Y34F/F100A, proteoliposomes) of 150 ± 20 nM, a Bmax [20] of 27 ± 3 nmol/mg and a Kd [20] of 20 ± 3 nM. For the same compound, the “decrease in affinity for PK 11195 compared with WT” value ([21]; Y34F/F99A vs WT) was 20 fold, the Bmax ([21]; Y34F/F99A, proteoliposomes) was 25 ± 10 nmol/mg and the Kd ([21]; Y34F/F99A, proteoliposomes) was 150 ± 20 nM. For the same compound, the Bmax [22] was 30 ± 10 nmol/mg, the Kd [22] was 20 ± 5 nM and the Bmax [23] was 25 ± 8 nmol/mg. The Kd [23] was 20 ± 8 nM, the “effect of mutation on PK 11195 binding” value [24] was “no effect” and the “effect of mutation on PK 11195 binding” value [25] was “complete loss of PK 11195 binding”. For the same compound, the “effect of mutation on PK 11195 binding” value [26] was “no effect”, the “binding to TSPO2” value [27] was “not binding” and the “PK 11195 binding % of control” value [28] was ~ 75 % of control. The “PK 11195 binding % of control” value [29] was ~ 55 % of control and 55 % of control, the Kd ([30]; proteoliposomes, fit of saturation curve) was 8 ± 3 nM and the Bmax ([30]; stoichiometry, nmol PK 11195 bound per mg recombinant TSPO) was 25 ± 3 nmol/mg. For the same compound, the “effect on proteolytic cleavage of rec-mTSPO by trypsin” value [31] was “protected against cleavage”, the “PK 11195 binding % of control” value [32] was ~ 55 % of control and the “effect of A147T polymorphism on affinity” value [1] was “no effect”. For the same compound, the “stoichiometry (Bmax)” value [33] was 25–30 nmol of PK 11195 bound per mg of recombinant TSPO.
